Source: patent publication US11180462B2, “Microbiocidal oxadiazole derivatives” (SYNGENTA PARTICIPATIONS AG, priority 2015, dated 2021)

Key:
[1] = tested on: Puccinia recondita f. Sp. Tritici; test: Fungicidal activity against Puccinia recondita f. sp. tritici / wheat / leaf disc preventative (brown rust); assay type: in vivo; conditions: foliar, 200 ppm in the applied formulation, wheat leaf segments, preventative, compared to untreated control leaf disks, read-out: disease control
Outline: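 Percent disease control relative to untreated check segments is scored once disease develops, 7 to 9 days after application. Wheat cv. Kanzler segments receive compound spray (200 ppm in formulation) one day before spore inoculation, then sit at 19° C. and 75% rh under 12 h light/12 h dark.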

[2] = tested on: Puccinia recondita f. Sp. Tritici; test: Fungicidal activity against Puccinia recondita f. sp. tritici / wheat / leaf disc curative (brown rust); assay type: in vivo; conditions: foliar, 24 h, 200 ppm in the applied formulation, wheat leaf segments, curative (applied 1 day after inoculation), compared to untreated control leaf disks, read-out: disease control
Outline: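 Curative leaf-segment test: compound diluted in water applied 1 day after spore inoculation of cv. Kanzler wheat segments on agar. Conditions 19° C, 75% RH, 12 h/12 h light cycle. Read-out: % disease control relative to untreated check, 6 to 8 days after application.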

Phakopsora Pachyrhizi = test: Fungicidal activity against Phakopsora pachyrhizi / soybean / leaf disc preventative (Asian soybean rust); assay type: in vivo; conditions: foliar, 200 ppm in the applied formulation, soybean leaf disks, compared to untreated control leaf disks, read-out: disease control
Outline: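 Scored 12 to 14 days post-application as percent control relative to untreated check discs, rust spores were sprayed under the disc one day after compound treatment. Incubation: 20°C, 75% rh, first 24–36 h in darkness, then 12 h daily light; discs kept on water agar.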

[3] = tested on: Glomerella lagenarium (Colletotrichum lagenarium); test: Fungicidal activity against Glomerella lagenarium (Colletotrichum lagenarium) liquid culture / cucumber / preventative (anthracnose); assay type: cell-based; conditions: Colletotrichum orbiculare; 20 ppm in the applied formulation; liquid culture (PDB), growth inhibition measured photometrically after 3 to 4 days; compared to untreated control; read-out: disease control
Outline: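 Percent activity against the untreated check was derived from photometric growth measurements made 2 to 7 days after conidia in potato dextrose broth were combined with compound at 20 ppm. Cultures were kept dark at 24 °C and 96% humidity.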

O=C(N(Cc1ccc(-c2noc(C(F)(F)F)n2)cc1)C1CC1)C1(C(F)(F)F)CC1 [Compound 1.83, N-cyclopropyl-1-(trifluoromethyl)-N-[[4-[5-(trifluoromethyl)-1,2,4-oxadiazol-3-yl]phenyl]methyl]-cyclopropane-carboxamide]
≥ 80%: pest or weed control at 200 ppm [1] | pest or weed control at 200 ppm [2] | pest or weed control at 200 ppm (Phakopsora Pachyrhizi) | inhibition of growth at 20 ppm [3]

C#CCCC(=O)N(Cc1ccc(-c2noc(C(F)(F)F)n2)cc1)C1CC1 [Compound 1.86, N-cyclopropyl-N-[[4-[5-(trifluoromethyl)-1,2,4-oxadiazol-3-yl]phenyl]methyl]-pent-4-ynamide]
≥ 80%: pest or weed control at 200 ppm [1] | pest or weed control at 200 ppm [2] | pest or weed control at 200 ppm (Phakopsora Pachyrhizi) | inhibition of growth at 20 ppm [3]

CC(C)C(=O)N(Cc1ccc(-c2noc(C(F)(F)F)n2)cc1)C1CC1 [Compound 1.87, N-cyclopropyl-2-methyl-N-[[4-[5-(trifluoromethyl)-1,2,4-oxadiazol-3-yl]phenyl]methyl]-propanamide]
≥ 80%: pest or weed control at 200 ppm [1] | pest or weed control at 200 ppm [2] | pest or weed control at 200 ppm (Phakopsora Pachyrhizi) | inhibition of growth at 20 ppm [3]

O=C(C1CC1(F)F)N(Cc1ccc(-c2noc(C(F)(F)F)n2)cc1)C1CC1 (stereo not shown) [Compound 1.89, N-cyclopropyl-2,2-difluoro-N-[[4-[5-(trifluoromethyl)-1,2,4-oxadiazol-3-yl]phenyl]methyl]-cyclopropane-carboxamide]
≥ 80%: pest or weed control at 200 ppm [1] | pest or weed control at 200 ppm [2] | pest or weed control at 200 ppm (Phakopsora Pachyrhizi) | inhibition of growth at 20 ppm [3]

C=CCCC(=O)N(Cc1ccc(-c2noc(C(F)(F)F)n2)cc1)C1CC1 [Compound 1.91, N-cyclopropyl-N-[[4-[5-(trifluoromethyl)-1,2,4-oxadiazol-3-yl]phenyl]methyl]-pent-4-enamide]
≥ 80%: pest or weed control at 200 ppm [1] | pest or weed control at 200 ppm [2] | pest or weed control at 200 ppm (Phakopsora Pachyrhizi) | inhibition of growth at 20 ppm [3]

O=C(N(Cc1ccc(-c2noc(C(F)(F)F)n2)cc1)C1CC1)C1(C(F)(F)F)CCC1 [Compound 1.92, N-cyclopropyl-1-(trifluoromethyl)-N-[[4-[5-(trifluoromethyl)-1,2,4-oxadiazol-3-yl]phenyl]methyl]-cyclobutane-carboxamide]
≥ 80%: pest or weed control at 200 ppm [1] | pest or weed control at 200 ppm [2] | pest or weed control at 200 ppm (Phakopsora Pachyrhizi) | inhibition of growth at 20 ppm [3]

CC(=O)CC(C)C(=O)N(Cc1ccc(-c2noc(C(F)(F)F)n2)cc1)C1CC1 (stereo not shown) [Compound 1.95, N-cyclopropyl-2-methyl-4-oxo-N-[[4-[5-(trifluoromethyl)-1,2,4-oxadiazol-3-yl]phenyl]methyl]-pentanamide]
≥ 80%: pest or weed control at 200 ppm [1] | pest or weed control at 200 ppm [2] | pest or weed control at 200 ppm (Phakopsora Pachyrhizi) | inhibition of growth at 20 ppm [3]

CCCC(=O)N(Cc1ccc(-c2noc(C(F)(F)F)n2)cc1)C1CC1 [Compound 1.97, N-cyclopropyl-N-[[4-[5-(trifluoromethyl)-1,2,4-oxadiazol-3-yl]phenyl]methyl]-butanamide]
≥ 80%: pest or weed control at 200 ppm [1] | pest or weed control at 200 ppm [2] | pest or weed control at 200 ppm (Phakopsora Pachyrhizi) | inhibition of growth at 20 ppm [3]

O=C(CC1CC1)N(Cc1ccc(-c2noc(C(F)(F)F)n2)cc1)C1CC1 [Compound 1.99, N,2-dicyclopropyl-N-[[4-[5-(trifluoromethyl)-1,2,4-oxadiazol-3-yl]phenyl]methyl]-acetamide]
≥ 80%: pest or weed control at 200 ppm [1] | pest or weed control at 200 ppm [2] | pest or weed control at 200 ppm (Phakopsora Pachyrhizi) | inhibition of growth at 20 ppm [3]

O=C(C1CCCC1)N(Cc1ccc(-c2noc(C(F)(F)F)n2)cc1)C1CC1 [Compound 1.100, N-cyclopropyl-N-[[4-[5-(trifIuoromethyl)-1,2,4-oxadiazol-3-yl]phenyl]methyl]-cyclopentane-carboxamide]
≥ 80%: pest or weed control at 200 ppm [1] | pest or weed control at 200 ppm [2] | pest or weed control at 200 ppm (Phakopsora Pachyrhizi) | inhibition of growth at 20 ppm [3]

O=C(CCC(F)(F)F)N(Cc1ccc(-c2noc(C(F)(F)F)n2)cc1)C1CC1 [Compound 1.101, N-cyclopropyl-4,4,4-trifluoro-N-[[4-[5-(trifluoromethyl)-1,2,4-oxadiazol-3-yl]phenyl]methyl]-butanamide]
≥ 80%: pest or weed control at 200 ppm [1] | pest or weed control at 200 ppm [2] | pest or weed control at 200 ppm (Phakopsora Pachyrhizi) | inhibition of growth at 20 ppm [3]

O=C(Cc1cccnc1)N(Cc1ccc(-c2noc(C(F)(F)F)n2)cc1)C1CC1 [Compound 1.102, N-cyclopropyl-2-(3-pyridyl)-N-[[4-[5-(trifluoromethyl)-1,2,4-oxadiazol-3-yl]phenyl]methyl]-acetamide]
≥ 80%: pest or weed control at 200 ppm [1] | pest or weed control at 200 ppm [2] | pest or weed control at 200 ppm (Phakopsora Pachyrhizi) | inhibition of growth at 20 ppm [3]

O=C(C1CCOC1)N(Cc1ccc(-c2noc(C(F)(F)F)n2)cc1)C1CC1 (stereo not shown) [Compound 1.103, N-cyclopropyl-N-[[4-[5-(trifluoromethyl)-1,2,4-oxadiazol-3-yl]phenyl]methyl]-tetrahydrofuran-3-carboxamide]
≥ 80%: pest or weed control at 200 ppm [1] | pest or weed control at 200 ppm [2] | pest or weed control at 200 ppm (Phakopsora Pachyrhizi) | inhibition of growth at 20 ppm [3]

O=C(C1CSC1)N(Cc1ccc(-c2noc(C(F)(F)F)n2)cc1)C1CC1 [Compound 1.104, N-cyclopropyl-N-[[4-[5-(trifluoromethyl)-1,2,4-oxadiazol-3-yl]phenyl]methyl]-thietane-3-carboxamide]
≥ 80%: pest or weed control at 200 ppm [1] | pest or weed control at 200 ppm [2] | pest or weed control at 200 ppm (Phakopsora Pachyrhizi) | inhibition of growth at 20 ppm [3]

COCCC(=O)N(Cc1ccc(-c2noc(C(F)(F)F)n2)cc1)C1CC1 [Compound 1.106, N-cyclopropyl-3-methoxy-N-[[4-[5-(trifluoromethyl)-1,2,4-oxadiazol-3-yl]phenyl]methyl]-propanamide]
≥ 80%: pest or weed control at 200 ppm [1] | pest or weed control at 200 ppm [2] | pest or weed control at 200 ppm (Phakopsora Pachyrhizi) | inhibition of growth at 20 ppm [3]

CC(C)CC(=O)N(Cc1ccc(-c2noc(C(F)(F)F)n2)cc1)C1CC1 [Compound 1.109, N-cyclopropyl-3-methyl-N-[[4-[5-(trifluoromethyl)-1,2,4-oxadiazol-3-yl]phenyl]methyl]-butanamide]
≥ 80%: pest or weed control at 200 ppm [1] | pest or weed control at 200 ppm [2] | pest or weed control at 200 ppm (Phakopsora Pachyrhizi) | inhibition of growth at 20 ppm [3]

CC(C)(CCl)C(=O)N(Cc1ccc(-c2noc(C(F)(F)F)n2)cc1)C1CC1 [Compound 1.110, 3-chloro-N-cyclopropyl-2,2-dimethyl-N-[[4-[5-(trifluoromethyl)-1,2,4-oxadiazol-3-yl]phenyl]methyl]-propanamide]
≥ 80%: pest or weed control at 200 ppm [1] | pest or weed control at 200 ppm [2] | pest or weed control at 200 ppm (Phakopsora Pachyrhizi) | inhibition of growth at 20 ppm [3]

O=C(CC(F)(F)F)N(Cc1ccc(-c2noc(C(F)(F)F)n2)cc1)C1CC1 [Compound 1.111, N-cyclopropyl-3,3,3-trifluoro-N-[[4-[5-(trifluoromethyl)-1,2,4-oxadiazol-3-yl]phenyl]methyl]-propanamide]
≥ 80%: pest or weed control at 200 ppm [1] | pest or weed control at 200 ppm [2] | pest or weed control at 200 ppm (Phakopsora Pachyrhizi) | inhibition of growth at 20 ppm [3]

O=C(C1CCC1)N(Cc1ccc(-c2noc(C(F)(F)F)n2)cc1)C1CC1 [Compound 1.112, N-cyclopropyl-N-[[4-[5-(trifluoromethyl)-1,2.4-oxadiazol-3-yl]phenyl]methyl]-cyclobutane-carboxamide]
≥ 80%: pest or weed control at 200 ppm [1] | pest or weed control at 200 ppm [2] | pest or weed control at 200 ppm (Phakopsora Pachyrhizi) | inhibition of growth at 20 ppm [3]

CC=CCC(=O)N(Cc1ccc(-c2noc(C(F)(F)F)n2)cc1)C1CC1 [Compound 1.114, N-cyclopropyl-N-[[4-[5-(trifluoromethyl)-1,2,4-oxadiazol-3-yl]phenyl]methyl]pent-3-enamide]
≥ 80%: pest or weed control at 200 ppm [1] | pest or weed control at 200 ppm [2] | pest or weed control at 200 ppm (Phakopsora Pachyrhizi) | inhibition of growth at 20 ppm [3]

CC1CC1C(=O)N(Cc1ccc(-c2noc(C(F)(F)F)n2)cc1)C1CC1 (stereo not shown) [Compound 1.115, N-cyclopropyl-2-methyl-N-[[4-[5-(trifluoromethyl)-1,2,4-oxadiazol-3-yl]phenyl]methyl]-cyclopropane-carboxamide]
≥ 80%: pest or weed control at 200 ppm [1] | pest or weed control at 200 ppm [2] | pest or weed control at 200 ppm (Phakopsora Pachyrhizi) | inhibition of growth at 20 ppm [3]

CC(C)(C)C(=O)N(Cc1ccc(-c2noc(C(F)(F)F)n2)cc1)C1CC1 [Compound 1.117, N-cyclopropyl-2,2-dimethyl-N-[[4-[5-(trifluoromethyl)-1,2,4-oxadiazol-3-yl]phenyl]methyl]-propanamide]
≥ 80%: pest or weed control at 200 ppm [1] | pest or weed control at 200 ppm [2] | pest or weed control at 200 ppm (Phakopsora Pachyrhizi) | inhibition of growth at 20 ppm [3]
